Source: patent publication US8124744B2, “Macrolide derivatives” (Taisho Pharmaceutical Co., Ltd., priority 2006, dated 2012)
≈ marks a conversion by molar mass, not a printed value.

Experiments:
pro MMP-9 protein = assay: Inhibitory activity against proMMP-9 protein production (TNF α-stimulated mouse peritoneal exudate cells, ELISA); type: cell-based, C57BL/6J mice; details: relative activity when the value of Comparative Agent 1 (IC50 = 10.04 ± 4.11 μM) is 10, on the increase of pro MMP-9 by TNF α 25 ng/ml, 24 hours, read-out: IC50 (μM)*
Protocol: (§1) To 7- to 9-week male C57BL/6J mice (purchased from CLEA Japan, Inc. or Japan SLC, Inc.), Zymosan A (SIGMA) derived from budding yeasts which is adjusted to be 1 mg/ml in a phosphate buffer solution (PBS, 10010-49, Invitrogen) was administered intraperitoneally at 1 ml per mouse to induce peritonitis. Three days later, filter-sterilized cell recovery buffer (2 mM EDTA, 0.5% bovine serum albumin, PBS, pH 7.4) was administered intraperitoneally at 5 ml per mouse to recover peritoneal exudata cells. The cells went through a cell strainer (70 μm nylon, FALCON) and were then washed twice with a Hanks solution (Invitrogen). The cells were suspended in 10% fetal calf serum-containing Dulbecco's modified Eagle's culture medium (Invitrogen). The suspension was seeded on a plate with 48 wells, after 6 hours, the culture medium was completely exchanged. After culturing for another 18 hours, test compounds were added at 0.02 to 20 μM of the final concentration. After 1 hour from the addition of the compounds, a tumor necrosis factor (TNF) α (R & D Systems) was added at 25 ng/ml of the final concentration, and 24 hours later, the culture supernatant was collected. The amount of pro MMP-9 protein in the supernatant was quantified by an enzyme-linked immunosorbent assay (ELISA) (R & D Systems), IC50 values of the test compounds on the increased amount by TNF α stimuli, were calculated by ORIGIN analysis software (trade name: OriginLab). In addition, minimal inhibitory concentration (MIC) of each test compounds (measured bacterium: Staphylococcus aureus ATCC29213) was measured. As a comparative agent […] A (clarithromycin) was used.

[1] = tested on: Staphylococcus aureus ATCC29213; assay: Minimal inhibitory concentration (MIC); type: cell-based
Protocol: as §1

IC50 (pro MMP-9 protein) [µM]	MIC [1] [µg/mL]	Compound
1.65	128 (≈ 168 µM)	CC[C@H]1OC(=O)[C@H](C)[C@@H](O[C@H]2C[C@@](C)(OC)[C@@H](O)[C@H](C)O2)[C@H](C)[C@@H](O[C@@H]2O[C@H](C)C[C@@H](NC)[C@@H]2N(C)C)[C@@](C)(OC)C[C@@H](C)C(=O)[C@H](C)[C@@H](O)[C@]1(C)O [Example 175, 3′-N-demethyl-2′-deoxy-2′-dimethylamino-6-O-methylerythromycin A]
3.88	> 128	CC[C@H]1OC(=O)[C@H](C)[C@@H](O[C@H]2C[C@@](C)(OC)[C@@H](O)[C@H](C)O2)[C@H](C)[C@@H](O[C@@H]2O[C@H](C)C[C@H](N(C)C)[C@H]2OCCCN(C)C)[C@@](C)(OC)C[C@@H](C)C(=O)[C@H](C)[C@@H](O)[C@]1(C)O [Example 115, 2′-O-(3-dimethylaminopropyl)-6-O-methylerythromycin A]
3.95	> 128	CC[C@H]1OC(=O)[C@H](C)[C@@H](O[C@H]2C[C@@](C)(OC)[C@@H](O)[C@H](C)O2)[C@H](C)[C@@H](O[C@@H]2O[C@H](C)C[C@H](N)[C@H]2OC)[C@@](C)(OC)C[C@@H](C)C(=O)[C@H](C)[C@@H](O)[C@]1(C)O [Example 138, 3′-N-dedimethyl-6,2′-di-O-methylerythromycin A]
4.08	> 128	CC[C@H]1OC(=O)[C@H](C)[C@@H](O[C@H]2C[C@@](C)(OC)[C@@H](O)[C@H](C)O2)[C@H](C)[C@@H](O[C@@H]2O[C@H](C)C[C@H](N(C)C)[C@H]2OC)[C@@](C)(OC)C[C@@H](C)C(=O)[C@H](C)[C@@H](O)[C@]1(C)O [Example 31, 6,2′-di-O-methylerythromycin A]
2.18	> 128	CC[C@H]1OC(=O)[C@H](C)[C@@H](O[C@H]2C[C@@](C)(OC)[C@@H](O)[C@H](C)O2)[C@H](C)[C@@H](O[C@@H]2O[C@H](C)C[C@H](N(C)C)[C@H]2OC)[C@@](C)(OC)C[C@@H](C)[C@H](O)[C@H](C)[C@@H](O)[C@]1(C)O [Example 141, 9-deoxo-9-(S)-hydroxy-6,2′-di-O-methylerythromycin A]
3.1	> 128	CC[C@H]1OC(=O)[C@H](C)[C@@H](O[C@H]2C[C@@](C)(OC)[C@@H](O)[C@H](C)O2)[C@H](C)[C@@H](O[C@@H]2O[C@H](C)C[C@@H](N3CCOCC3)[C@@H]2N(C)C)[C@@](C)(OC)C[C@@H](C)C(=O)[C@H](C)[C@@H](O)[C@]1(C)O [Example 178, 3′-dedimethylamino-2′-deoxy-2′-dimethylamino-3′-(4-morpholino)-6-O-methylerythromycin A]
3.82	> 128	CC[C@H]1OC(=O)[C@H](C)[C@@H](O[C@H]2C[C@@](C)(OC)[C@@H](O)[C@H](C)O2)[C@H](C)[C@@H](O[C@@H]2O[C@H](C)C[C@@H](N(C)Cc3cccnc3)[C@@H]2N(C)C)[C@@](C)(OC)C[C@@H](C)C(=O)[C@H](C)[C@@H](O)[C@]1(C)O [Example 190, 3′-N-demethyl-2′-deoxy-2′-dimethylamino-3′-N-(3-pyridylmethyl)-6-O-methylerythromycin A]
1.7	> 128	CC[C@H]1OC(=O)[C@H](C)[C@@H](O[C@H]2C[C@@](C)(OC)[C@@H](OC(C)=O)[C@H](C)O2)[C@H](C)[C@@H](O[C@@H]2O[C@H](C)C[C@@H](NC)[C@@H]2N(C)C)[C@@](C)(OC)C[C@@H](C)C(=O)[C@H](C)[C@@H](O)[C@]1(C)O [Example 174, 4″-O-acetyl-3′-N-demethyl-2′-deoxy-2′-dimethylamino-6-O-methylerythromycin A]
1.01	> 128	CC[C@H]1OC(=O)[C@H](C)[C@@H](O[C@H]2C[C@@](C)(OC)[C@@H](OC(C)=O)[C@H](C)O2)[C@H](C)[C@@H](O[C@@H]2O[C@H](C)C[C@@H](N(C)Cc3ccccc3)[C@@H]2N(C)C)[C@@](C)(OC)C[C@@H](C)C(=O)[C@H](C)[C@@H](O)[C@]1(C)O [Example 170, 4″-O-acetyl-3′-N-demethyl-2′-deoxy-2′-dimethylamino-3′-N-benzyl-6-O-methylerythromycin A]
4.42	> 128	CC[C@H]1OC(=O)[C@H](C)[C@@H](O[C@H]2C[C@@](C)(OC)[C@@H](OC(C)=O)[C@H](C)O2)[C@H](C)[C@@H](O[C@@H]2O[C@H](C)C[C@@H](N3CCOCC3)[C@@H]2N(C)C)[C@@](C)(OC)C[C@@H](C)C(=O)[C@H](C)[C@@H](O)[C@]1(C)O [Example 177, 4″-O-acetyl-3′-dedimethylamino-2′-deoxy-2′-dimethylamino-3′-(4-morpholino)-6-O-methylerythromycin A]
1.37	> 128	CC[C@H]1OC(=O)[C@H](C)[C@@H](O[C@H]2C[C@@](C)(OC)[C@@H](OC(C)=O)[C@H](C)O2)[C@H](C)[C@@H](O[C@@H]2O[C@H](C)C[C@@H](N(C)Cc3ccncc3)[C@@H]2N(C)C)[C@@](C)(OC)C[C@@H](C)C(=O)[C@H](C)[C@@H](O)[C@]1(C)O [Example 187, 4″-O-acetyl-3′-N-demethyl-2′-deoxy-2′-dimethylamino-3′-N-(4-pyridylmethylamino)-6-O-methylerythromycin A]
5.51	> 128	CC[C@H]1OC(=O)[C@H](C)[C@@H](O[C@H]2C[C@@](C)(OC)[C@@H](O)[C@H](C)O2)[C@H](C)[C@@H](O[C@@H]2O[C@H](C)C[C@H](N3CCOCC3)[C@H]2OC)[C@@](C)(OC)C[C@@H](C)C(=O)[C@H](C)[C@@H](O)[C@]1(C)O [Example 139, 3′-N-dedimethylamino-3-(4-morpholino)-6,2′-di-O-methylerythromycin A]
3.6	> 128	CC[C@H]1OC(=O)[C@H](C)[C@@H](O[C@H]2C[C@@](C)(OC)[C@@H](O)[C@H](C)O2)[C@H](C)[C@@H](O[C@@H]2O[C@H](C)C[C@@H](N(C)CCCO)[C@@H]2N(C)C)[C@@](C)(OC)C[C@@H](C)C(=O)[C@H](C)[C@@H](O)[C@]1(C)O [Example 199, 3′-N-demethyl-2′-deoxy-2′-dimethylamino-3′-N-(3-hydroxypropyl)-6-O-methylerythromycin A]
3.06	> 128	CC[C@H]1OC(=O)[C@H](C)[C@@H](O[C@H]2C[C@@](C)(OC)[C@@H](OC(C)=O)[C@H](C)O2)[C@H](C)[C@@H](O[C@@H]2O[C@H](C)C[C@H](N(C)C)[C@H]2OCCCN2CCC(O)CC2)[C@@](C)(OC)C[C@@H](C)C(=O)[C@H](C)[C@@H](O)[C@]1(C)O [Example 122, 4″-O-acetyl-2′-O-(3-(4-hydropiperidin-1-yl)propyl)-6-O-methylerythromycin A]
< 1.5	> 128	CC[C@H]1OC(=O)[C@H](C)[C@@H](O[C@H]2C[C@@](C)(OC)[C@@H](OC(C)=O)[C@H](C)O2)[C@H](C)[C@@H](O[C@@H]2O[C@H](C)C[C@@H](N(C)CCCc3ccncc3)[C@@H]2N(C)C)[C@@](C)(OC)C[C@@H](C)C(=O)[C@H](C)[C@@H](O)[C@]1(C)O [Example 162, 4″-O-acetyl-3′-N-demethyl-2′-deoxy-2′-dimethylamino-3′-N-(3-(4-pyridyl)propyl)-6-O-methylerythromycin A]
